Test results reported in ChEMBL document CHEMBL1139911, “4-substituted indazoles as new inhibitors of neuronal nitric oxide synthase” (Bioorg Med Chem Lett, 2007).
One block for each molecule: values may come before it.

What was measured:
Nitric oxide synthase 1 = Nitric oxide synthase 1 (Rattus norvegicus, UniProt P29476); assay: Inhibition of rat neuronal NOS
Mus musculus [1] = assay: Antinociceptive effect in acetic acid-induced mouse assessed as number of writhes for 10 mins at 25 mg/kg, ip; format: functional; settings: route intraperitoneal
Mus musculus [2] = assay: Antinociceptive effect in acetic acid-induced mouse assessed as number of writhes for 10 mins at 50 mg/kg, ip; format: functional; settings: route intraperitoneal
Mus musculus [3] = assay: Antinociceptive effect in mouse assessed as number of writhes for 10 mins at 50 mg/kg, ip; format: functional; settings: route intraperitoneal
Mus musculus [4] = assay: Antinociceptive effect in acetic acid-induced mouse assessed as number of writhes for 10 mins at 12.5 mg/kg, ip; format: functional; settings: route intraperitoneal
Mus musculus [5] = assay: Reversal of antinociceptive effect in L-arginine pretreated mouse assessed as number or writhes for 10 mins at 50 mg/kg, ip; format: functional; settings: route intraperitoneal

Sequence of Nitric oxide synthase 1 (P29476 whole entry): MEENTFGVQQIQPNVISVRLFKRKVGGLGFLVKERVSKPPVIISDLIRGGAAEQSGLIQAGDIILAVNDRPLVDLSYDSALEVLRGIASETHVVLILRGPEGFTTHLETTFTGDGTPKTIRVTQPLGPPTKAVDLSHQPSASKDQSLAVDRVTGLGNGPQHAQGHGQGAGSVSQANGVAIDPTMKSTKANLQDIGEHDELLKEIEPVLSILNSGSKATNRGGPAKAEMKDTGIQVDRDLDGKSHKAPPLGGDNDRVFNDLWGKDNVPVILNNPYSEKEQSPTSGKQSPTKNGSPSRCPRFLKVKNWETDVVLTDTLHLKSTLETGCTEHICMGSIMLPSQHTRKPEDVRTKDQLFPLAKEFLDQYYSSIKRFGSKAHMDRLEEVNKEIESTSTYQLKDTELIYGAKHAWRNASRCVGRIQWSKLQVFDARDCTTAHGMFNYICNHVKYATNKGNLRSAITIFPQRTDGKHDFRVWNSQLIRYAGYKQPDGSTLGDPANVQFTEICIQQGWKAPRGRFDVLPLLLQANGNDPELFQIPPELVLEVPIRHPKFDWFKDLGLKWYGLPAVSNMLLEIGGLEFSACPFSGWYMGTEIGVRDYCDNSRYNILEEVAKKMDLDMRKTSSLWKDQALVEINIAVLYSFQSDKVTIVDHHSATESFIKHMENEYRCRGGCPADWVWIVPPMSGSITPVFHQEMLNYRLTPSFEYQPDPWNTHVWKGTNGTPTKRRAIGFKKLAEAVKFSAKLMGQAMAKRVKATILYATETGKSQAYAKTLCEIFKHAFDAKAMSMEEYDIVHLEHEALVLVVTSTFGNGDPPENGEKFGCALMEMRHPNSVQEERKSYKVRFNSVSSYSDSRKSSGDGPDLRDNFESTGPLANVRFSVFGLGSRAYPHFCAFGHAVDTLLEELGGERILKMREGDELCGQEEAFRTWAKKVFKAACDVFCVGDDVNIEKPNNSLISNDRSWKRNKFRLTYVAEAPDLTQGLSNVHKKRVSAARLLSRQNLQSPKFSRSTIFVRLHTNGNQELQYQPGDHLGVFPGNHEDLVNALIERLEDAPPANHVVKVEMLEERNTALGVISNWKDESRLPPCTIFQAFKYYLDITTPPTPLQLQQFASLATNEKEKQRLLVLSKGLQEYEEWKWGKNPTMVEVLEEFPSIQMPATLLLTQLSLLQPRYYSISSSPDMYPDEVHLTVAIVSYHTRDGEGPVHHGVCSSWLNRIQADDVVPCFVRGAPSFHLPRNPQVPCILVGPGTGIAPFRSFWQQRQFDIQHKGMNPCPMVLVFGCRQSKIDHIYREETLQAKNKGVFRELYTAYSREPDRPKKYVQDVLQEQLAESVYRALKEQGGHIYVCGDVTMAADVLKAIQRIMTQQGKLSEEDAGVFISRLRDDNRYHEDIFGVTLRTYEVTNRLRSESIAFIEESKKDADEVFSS

Compound: Brc1cccc2[nH]ncc12
Activity (Mus musculus [1]): 8.8
Activity (Mus musculus [2]): 9.3
IC50 (Nitric oxide synthase 1): 2.4 µM
Activity (Mus musculus [3]): 10.8
Activity (Mus musculus [4]): 11
Activity (Mus musculus [5]): 24.3

Compound: Clc1ccc2[nH]ncc2c1
IC50 (Nitric oxide synthase 1): 59.3 µM

Compound: Fc1ccc2cn[nH]c2c1
IC50 (Nitric oxide synthase 1): > 100 µM

Compound: Fc1cccc2[nH]ncc12
IC50 (Nitric oxide synthase 1): > 100 µM

Compound: O=[N+]([O-])c1cccc2[nH]ncc12
Activity (Mus musculus [1]): 9.9
Activity (Mus musculus [2]): 9.3
Activity (Mus musculus [3]): 11.8
Activity (Mus musculus [4]): 18
Activity (Mus musculus [5]): 23.8

Compound: O=[N+]([O-])c1cccc2cn[nH]c12 [7-NITROINDAZOLE]
Activity (Mus musculus [2]): 6.8

Compound: N=C(N)NCCC[C@H](N)C(=O)O [ARGININE]
Activity (Mus musculus [3]): 22.9

Compound: CC(=O)Oc1ccccc1C(=O)O [ASPIRIN]
Activity (Mus musculus [4]): 7.6

Further lines, with some results ahead:

IC50 (Nitric oxide synthase 1): > 100 µM
Compound: Fc1ccc2[nH]ncc2c1

IC50 (Nitric oxide synthase 1): 72 µM
Compound: Brc1ccc2[nH]ncc2c1

IC50 (Nitric oxide synthase 1): 44.3 µM
Compound: Clc1cccc2[nH]ncc12

IC50 (Nitric oxide synthase 1): 17 µM
Compound: Ic1cccc2[nH]ncc12

IC50 (Nitric oxide synthase 1): 4.3 µM
Compound: Brc1ccc2cn[nH]c2c1

IC50 (Nitric oxide synthase 1): 4.2 µM
Compound: Clc1cccc2cn[nH]c12
Activity (Mus musculus [1]): 12.9
Activity (Mus musculus [2]): 7.9
Activity (Mus musculus [3]): 12.1
Activity (Mus musculus [4]): 15
Activity (Mus musculus [5]): 23

IC50 (Nitric oxide synthase 1): 37 µM
Compound: Ic1ccc2[nH]ncc2c1

IC50 (Nitric oxide synthase 1): 22 µM
Compound: Clc1ccc2cn[nH]c2c1

IC50 (Nitric oxide synthase 1): 14.3 µM
Compound: Brc1cccc2cn[nH]c12
